Assay results from PMC2790015 (Journal of molecular biology, 2009).
Each block holds one molecule with its values, some of them ahead of it.

Tests used:
DNA alone = test: DNA hybridization controls for the AraC experiments; format: binding; settings: compared with no sugar; sugars 10 mM; data not shown
[1] = tested on: K4 and E4 heterodimerizing coiled-coil peptides; test: DNA-assisted binding assay; settings: GC to AT substituted DNA versus original DNA sequence
adjacent DNA half-sites = settings: addition of arabinose; cited from earlier work
[2] = target: T1, K4 coiled-coil peptide (modified: N-terminal Met, Val to Trp, C-terminal Ala), unconjugated; test: ITC
T1 peptide: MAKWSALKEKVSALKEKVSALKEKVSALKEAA

Molecule: OC[C@H]1OC(O)[C@H](O)[C@@H](O)[C@@H]1O (some centres unmarked) [glucose]
effect of sugar on DNA hybridization (DNA alone): DNA hybridization is not affected

Molecule: GC to AT substituted DNA sequences: K4 and E4 conjugated to GC to AT substituted 5’-TTTTTTGGGTTATAC-3’ and 5’-TTTTTTGTATAAC-3’ (K4 and E4 peptides conjugated)
decrease in the interaction between the conjugates [1]: 3 -fold

Molecule: O[C@@H]1[C@@H](O)[C@@H](O)CO[C@H]1O [arabinose]
increase in amount of AraC capable of binding to adjacent DNA half-sites (adjacent DNA half-sites): 40 -fold
effect of sugar on DNA hybridization (DNA alone): DNA hybridization is not affected

Kd [2]: ~1000 nM
B1: E4 coiled-coil peptide (modified: N-terminal Met, Val to Trp, C-terminal Ala), unconjugated (peptide)
peptide: MAEWSALEKEVSALEKEVSALEKEVSALEKAA
